Laboratory results from publication PMC8546421, “Molecular modelling of the FOXO4-TP53 interaction to design senolytic peptides for the elimination of senescent cancer cells” (EBioMedicine, 2021).
“Also recorded” adds a separate entry of the source. Where no end group is shown, it is not given here.

What was measured:
FOXO4-TP53 foci = test: Proximity Ligation Assay; assay type: cell-based, human; conditions: 8 µM ES2, 1 hour
Procedure: Senescent and dividing A375 cells were plated in 96-well plates (Cellvis P96-1.5P) at concentration of 20,000 cells per well. The following day, the cells were treated with 8 µM ES2 for 0, 1, and 4 hours. The plate was then fixed with 4% paraformaldehyde for 10 minutes at room temperature. Cells were washed with PBS twice then permeabilized with 0.1% Triton™ X-100 in PBS for 15 minutes. The duolink® In Situ Red Starter Kit Mouse/Rabbit was then used according to manufacturer's protocol with exception of 1:10 dilution of PLUS and MINUS PLA probes. Primary antibodies used were FOXO4 (Cell Signaling Technology Cat# 9472, RRID:AB_10831833, diluted 1:1000), TP53BP1 (BD Biosciences Cat# 612523, RRID:AB_399824, diluted 1:2000), and TP53 (Santa Cruz Cat# sc-126, RRID:AB_628082, diluted 1:500). Z-stacks with 0.34 um steps were captured on a Zeiss Axio Observer Z.1 inverted microscope using a Plan-Apochromat 40 × 0.95 NA lens. The system is setup for widefield fluorescence imaging using a Colibri 7 LED source and a Hamamatsu Orca-flash 4.0 LT black and white camera. The widefield z-stacks were flattened into maximum intensity projections as a pre-processing step before the analysis. Fluorescent foci were counted using the Zeiss Zen software Analysis feature. Briefly, the DAPI staining was used to define the nuclear regions. […] The total number of foci per nucleus was recorded.

[1] = test system: Braf/Pten sporadic melanomas; test: TUNEL staining of melanomas in transgenic mice; assay type: in vivo, mouse; conditions: intratumoural injection daily over two days; single agents vs saline
Procedure: These mice were maintained on a C57Bl6 background and all experimental mice contained Tyr::CreER with either Braf^CA/+, Pten^fx/+; Braf^CA/CA, Pten^fx/+, or Braf^CA/+, Pten^fx/fx. […] Hypopigmented melanomas sporadically formed over the next 3-5 months, typically on the back of the mouse. These melanomas were then directly injected with 100 µL of either 20 mg/mL ES2+10%DMSO, saline+10%DMSO, saline+10%Dabrafenib, or 20 mg/mL ES2+10%Dabrafenib. The researchers were not blinded to the experiment, but each mouse contained an internal control and all imaging was done with the same exposure times based upon control tissue.
Fixed frozen sections of melanomas were stained with the Click-IT Plus TUNEL assay (ThermoFisher C10618) according to the manufacturer's protocol. Stained sections were imaged with a Zeiss A2 upright microscope at either 20x or 10x. At least one of each treatment group were stained and imaged at the same time. All sections from each staining group were set to the same exposure time for TUNEL and DAPI. Any normalization of background levels was performed in Adobe Photoshop and set to the same scale for the entire image and for all other images.

A375 cells = test: Annexin V live cell stain, kinetics of apoptosis; assay type: cell-based, human; conditions: 8 µM ES2, A375 cells, linear regression comparison p<0.001
dividing A375 cells = test: Orthotopic xenograft of dividing luciferase A375 cells, radiance; assay type: in vivo, mouse; conditions: dividing A375 cells injected orthotopically, locally injected twice, imaged one day later; ES2 n=5, saline n=9
FOXO4-TP53 interaction = test: Co-immunoprecipitation of Myc-FOXO4 for p53; assay type: cell-based, human; conditions: senescent HCT116-Myc-FOXO4 cells, 8 µM ES2, 1 hour
Procedure: HCT116 cells were transduced with FOXO4 (NM_005938) human tagged ORF Lentiviral Particles (Origene, Cat# RC213185L1V) at 10^6 TU/mL. Cells were then cultured for seven passages. HCT116-Myc-FOXO4 were made senescent using 200 nM Doxorubicin at the final cell concentration of 24 million cells. Dividing cells were plated at concentration of 80 million cells. The following day, cells were treated with 8 µM ES2 for 0 or 1 hour. Nuclear protein was then isolated using NE-PER™ Nuclear and Cytoplasmic Extraction Reagents kit (Cat# 78833) then quantified via Pierce^TM BCA Protein Assay Kit (Cat# 23225) according to manufacturer's instructions. 400 µg of each nuclear lysate and 10 µL of provided positive control was used in the Thermo Scientific™ Pierce™ c-Myc-Tag IP/Co-IP Kit (Cat# 23620). The eluted protein (20 µL) was then loaded onto Bolt™ 4 to 12%, Bis-Tris, 1.0 mm, Mini Protein Gel, 10-well (Cat# NW04120BOX) and run at 120V for 60 minutes in 1X Invitrogen™ Bolt™ MOPS SDS Running Buffer using the Mini Gel Tank (Cat. A25977). Protein was then transferred onto 0.4 µm PVDF according to manufacturer protocol. The membrane was then blocked in 5% non-fat milk in 1x TBS-T (Cat# 03-500-537) for 60 minutes. […]

GFP = GFP (Aequorea victoria, UniProt P42212); test: Bio-layer Interferometry, GFP; assay type: binding; conditions: BLI
Procedure: Bio-layer Interferometry (BLI) measurements were performed on a ForteBio Octet RED384 instrument (Molecular Devices) using ForteBio Data Acquisition software 9.0 and ForteBio biosensors (Molecular Devices) according to the manufacturer's instructions. Kinetic assays were carried out at 30°C using settings of Standard Kinetics Acquisition rate (5.0 Hz, averaging by 20) at a sample plate shake speed of 1,000 rpm. Streptavidin sensors (SA) (ForteBio) equilibrated in PBS were mock loaded (no ligand reference sensor) or loaded with 50 nM of N- terminal biotinylated ES2 peptide (New England Peptide, Inc.) with an approximate response of 1 nm. Ligand loaded SA sensors equilibrated in Kinetics buffer (ForteBio) to establish a baseline, were dipped into wells containing 2-fold dilutions of TP53 (Millipore Sigma Aldrich; Cat# 23-034), FOXO4 (OriGene Technologies; Cat# TP760655) or GFP analytes in kinetics buffer, or buffer alone (reference sample). […] Binding curves were analysed using ForteBio Data Analysis HT 10.0 evaluation software. […] Equilibrium dissociation constants KD which defines the strength of the interaction or affinity was calculated as the kinetic dissociation rate constant divided by the kinetic association rate constant.

Sequence: PRKGGRRRRAWGRRRRRRRRRRRRRRAPRKRLTLA [ES2]
- effect on FOXO4-TP53 foci in dividing cells (FOXO4-TP53 foci; dividing A375 cells): no effect on FOXO4-TP53 foci in dividing cells
- reduction of FOXO4-TP53 foci in senescent cells (FOXO4-TP53 foci; senescent A375 cells): 2 fold
- effect on apoptosis (TUNEL), in words [1]: no difference
- rate of apoptosis, senescent compared to dividing cells (A375 cells): four-fold
- elimination of dividing cancer cells in vivo (radiance) (dividing A375 cells): no difference in gain of radiance; also recorded: ineffective at eliminating dividing cancer cells
- TP53 band co-immunoprecipitated with Myc-FOXO4 (FOXO4-TP53 interaction): a band at 53kDa that is eliminated after treating with ES2
- Kd (GFP; biotinylated ES2 on streptavidin sensors, 30°C, NB – no binding): > 200 nM
- binding of GFP (in words) (GFP; six 2-fold dilutions of GFP starting at 200nM): minimal binding of GFP; also recorded: no binding was detected
